In brackets after ≈: the same amount, converted by molar mass. Several values for one entry are separate records, joined by “and”; a condition that tells them apart may be missing. Equal values may be shown once. Read-outs that look alike come from different tables or passages of the source.
Columns and labels:
Aqueous stability (UPLC) = type: physicochemical
Method: For the aqueous stability determination, UPLC analyses were performed as described under Chemistry–General Information. The method used a Waters Acquity UPLC® HSS C18 SB column (2.1 mm× 50 mm, 1.8 μm) thermostated at 40 °C, with: injection volume, 5 μL; flow rate, 0.4 mL/min; detector λ, 220 nm; mobile phase A: 0.1% TFA (v/v) in MilliQ water; mobile phase B: MeCN. Gradient: 0–5 min, 20%–100% B; 5–6 min, 20% B.
Compound stock solutions (100 mmol/L) were prepared in absolute EtOH, while the internal standard (caffeine) was dissolved in PBS (0.1 mg/mL). The aqueous stability solutions were prepared by mixing 1200 μL PBS with internal standard, 150 μL absolute EtOH, and 150 μL compound stock solution in a HPLC vial to give 10 mmol/L compound concentration in PBS/EtOH = 80:20, which was injected immediately and then at hourly intervals for 48 h. The analyte AUCs were normalized on internal standard AUCs and compared with the timepoint zero. For the rate calculation, pseudo-first order kinetics were assumed.
For investigation of compound 8 stability in an aqueous medium, its stock solution (10,000 mg/L) was prepared in EtOH. 15 μL of the stock solution was mixed with 60 μL of caffeine (2500 mg/L in EtOH) and 1425 μL of the respective aqueous solution/buffer to achieve final concentration of 100 mg/L with 5% ethanol content. The UPLC analysis was carried as described above.

Thermodynamic solubility = type: physicochemical; settings: thermodynamic from solid
Method: The supernatants were diluted 1:5 with 50% MeCN or used directly for UPLC analysis (calibration curve was constructed from 0.5–100 mg/L standard solutions of compound 8).

BChE = biological target: T1, BChE (Mus musculus, UniProt Q03311); assay: Cholinesterase inhibition upon repeated dosing, serum BChE; type: in vivo, C57BL/6JRccHsd mice; settings: for remaining activity at 1 mg/kg / remaining activity at 5 mg/kg: mouse, po
T1 construct: from tissue; host or cells: mouse serum (C57BL/6JRccHsd)
T1 sequence (Q03311 30-603): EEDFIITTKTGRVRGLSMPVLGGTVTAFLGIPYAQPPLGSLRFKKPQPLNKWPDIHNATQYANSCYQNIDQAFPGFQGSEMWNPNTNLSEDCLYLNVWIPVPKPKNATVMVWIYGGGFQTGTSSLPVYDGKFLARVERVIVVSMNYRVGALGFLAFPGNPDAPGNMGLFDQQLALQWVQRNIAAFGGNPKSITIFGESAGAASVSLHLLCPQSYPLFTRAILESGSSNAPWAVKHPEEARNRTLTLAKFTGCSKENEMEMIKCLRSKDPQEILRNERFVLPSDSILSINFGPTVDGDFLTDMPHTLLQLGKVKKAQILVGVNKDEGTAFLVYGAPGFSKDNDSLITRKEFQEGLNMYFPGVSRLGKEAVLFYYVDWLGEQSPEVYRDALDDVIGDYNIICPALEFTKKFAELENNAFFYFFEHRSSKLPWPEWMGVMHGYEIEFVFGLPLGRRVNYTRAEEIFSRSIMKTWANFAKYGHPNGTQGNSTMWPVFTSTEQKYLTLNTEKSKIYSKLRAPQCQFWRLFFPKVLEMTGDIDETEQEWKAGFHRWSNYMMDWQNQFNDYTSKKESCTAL
Excerpt: The 12 mice used in this pilot study were 9–14 months old male wild-type C57BL/6JRccHsd mice bred in the Laboratory of Animal Genomics at the Faculty of Veterinary Medicine, University of Ljubljana, or purchased from Envigo RMS Holding Corp. Mice were conventionally bred in open polycarbonate cages (Tecniplast, Buguggiate, Italy) and provided with wood chip bedding (Lignocel®, Rettenmaier and Sons, Germany). Mice were kept under standard conditions, including a 12:12 dark–light cycle (LED, CCT 3000 k, with no more than 25 lux above the cage), a temperature range of 21–24 °C, and humidity between 50%–60%. They were fed irradiated rodent diet (Teklad global 16% protein rodent diet®, BN 2916, Envigo, Udine, Italy) and had access to drinkable tap water ad libitum. Due to the nature of this pilot study, the mice were housed individually. The experimental design was evaluated by the National Ethics Committee for Animal Experiments and approved by the Veterinary Administration of the Republic of Slovenia (document no. U34401-10/2021/8, with amendments U34401-10/2021/13 and U34401-10/2021/1).
Before the start of study, blood was drawn from the submandibular vein (facial vein) of the animals under isoflurane inhalation anesthesia (Isoflurin®, VetPharma, Spain) using a 5 mm lancet (Goldenrod Animal Sterile, MEDIpoint, Inc., NY, USA), collected in a microtube (Eppendorf, Safe-Lock tube, 0.5 mL, Eppendorf AG, Germany) and allowed to clot. After approximately 1 h, the blood was centrifuged at 6000 × g for 15 min at 4 °C to obtain the sera, which were stored at –80 °C until analysis.
Seven animals received the 1 mg/kg dose of compound 8, and five animals received the 5 mg/kg dose of compound 8. Compound 8 was prepared as a stock solution in 100% MeCN (5 and 10 mg/mL) and kept refrigerated for the duration of the study. The dosages were prepared as follows: based on the animal’s body weight, a calculated volume of compound 8 stock solution was accurately pipetted onto a cubic piece (approx. 50 mg) of sterilized toast (Ölz multigrain toast, Rudolf Ölz Meisterbäcker GmbH & Co KG, Austria), and left to dry at room temperature for 5 min. Subsequently, 25 μL of 50% sucrose in distilled water were added at the same site to mask the bitter taste of compound 8. These dosage units were prepared twice a week during the study and stored in a closed glass petri dish at room temperature until use. […] Compound 8 was administered in this way for 27 days, eliminating the need for repeated handling and injection. The animals were observed daily for general activity level, hair coat quality or other abnormal behavior or clinical signs.
24 h after the last dose was administered, the mice were humanly euthanized under isoflurane inhalation anesthesia (Isoflurin®, VetPharma, Spain) and the blood was withdrawn from the left ventricle using a syringe, collected in a microtube (Eppendorf, Safe-Lock tube, 0.5 mL, Eppendorf AG, Germany) and allowed to clot. After approximately 1 h, the blood was centrifuged at 6000 × g for 15 min at 4 °C to obtain the sera, which were stored at –80 °C until analysis. […] Animal sera (5–10 μL) were diluted in 0.5 mmol/L DTNB in 0.1 mol/L sodium phosphate buffer pH 7.4 (total volume 1000 μL), substrate (5 μL of 100 mmol/L, final concentration 0.5 mmol/L) was added, and the increase in absorbance monitored for 3 min. BChE activity was determined using butyrylthiocholine iodide, while AChE activity was determined on isoOMPA-inhibited sera (buffer-diluted sera were preincubated for 25 min with 1 μL of 100 mmol/L isoOMPA–0.1 mmol/L final concentration) using acetylthiocholine iodide (final concentration 0.5 mmol/L). Measurements were performed in triplicate and pairwise compared before and after treatment for each subject (n = 5 per group).

hBChE = hBChE (Homo sapiens, UniProt P06276); settings: expected nearly identical to compound 11 of the previous study (same carbamoyl residue at Ser198); cited from earlier work
hBChE, sequence (P06276 29-602): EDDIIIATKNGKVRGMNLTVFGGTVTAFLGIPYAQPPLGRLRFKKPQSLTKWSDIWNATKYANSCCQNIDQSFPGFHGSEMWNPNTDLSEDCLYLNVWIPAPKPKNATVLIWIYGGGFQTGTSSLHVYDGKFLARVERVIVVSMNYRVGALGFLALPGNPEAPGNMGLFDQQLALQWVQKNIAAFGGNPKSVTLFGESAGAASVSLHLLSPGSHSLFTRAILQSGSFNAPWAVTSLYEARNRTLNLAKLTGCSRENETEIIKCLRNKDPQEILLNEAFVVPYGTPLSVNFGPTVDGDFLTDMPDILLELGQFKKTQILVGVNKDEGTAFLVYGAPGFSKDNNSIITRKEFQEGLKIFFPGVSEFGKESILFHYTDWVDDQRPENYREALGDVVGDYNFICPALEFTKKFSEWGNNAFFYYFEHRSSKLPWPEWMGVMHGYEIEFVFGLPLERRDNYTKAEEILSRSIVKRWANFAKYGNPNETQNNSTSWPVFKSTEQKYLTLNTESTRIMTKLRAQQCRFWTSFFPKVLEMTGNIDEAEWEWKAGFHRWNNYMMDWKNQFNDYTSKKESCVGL

CCN(CC)C(=O)n1cnc(C2(CC)Cc3ccccc3C2)c1 [Compound 8, N,N-Diethyl-4-(2-ethylindan-2-yl)-1H-imidazole-1-carboxamide]
t1/2 in aqueous solution (Aqueous stability (UPLC); PBS:EtOH = 80:20, 10 mmol/L, during 48 h): stable
% left after 24 h (Aqueous stability (UPLC); PBS:EtOH = 95:5, 100 mg/L): 100.0%
% left after 24 h (Aqueous stability (UPLC); pH 2:EtOH = 95:5, 100 mg/L): 99.9%
% left after 24 h (Aqueous stability (UPLC); pH 4:EtOH = 95:5, 100 mg/L): 100.0%
% left after 24 h (Aqueous stability (UPLC); pH 6:EtOH = 95:5, 100 mg/L): 100.0%
% left after 24 h (Aqueous stability (UPLC); pH 10:EtOH = 95:5, 100 mg/L): 97.7%
solubility at 24 h (Thermodynamic solubility; 1% Tween 20 in water, aqueous with cosolvent or surfactant or cyclodextrin, 1% Tween 20/water): 615 ± 172 µg/mL (≈ 1970 µM)
solubility at 24 h (Thermodynamic solubility; PBS, aqueous buffer): 100 ± 20 µg/mL (≈ 321 µM)
solubility at 24 h (Thermodynamic solubility; pH 2 solution, pH 2, aqueous buffer): 2420 ± 108 µg/mL (≈ 7760 µM)
solubility at 24 h (Thermodynamic solubility; pH 4 solution, pH 4, aqueous buffer): 166 ± 12 µg/mL (≈ 533 µM)
solubility at 24 h (Thermodynamic solubility; pH 6 solution, pH 6, aqueous buffer): 136 ± 1 µg/mL (≈ 437 µM)
solubility at 24 h (Thermodynamic solubility; pH 10 solution, pH 10, aqueous buffer): 103 ± 17 µg/mL (≈ 331 µM)
solubility at 24 h (Thermodynamic solubility; water): 115 ± 26 µg/mL (≈ 369 µM)
BChE residual activity, AVERAGE (BChE; 1 mg/kg p.o. once a day for 4 weeks, compared to before treatment, 1 mg/kg): 21%±6%
BChE activity AFTER treatment (BChE; 1 mg/kg p.o. once a day, individual animals, 1 mg/kg): 0.2139±0.0118 U/mL and 0.1602±0.0041 U/mL and 0.1484±0.0071 U/mL and 0.2261±0.0071 U/mL and 0.2214±0.0082 U/mL
BChE residual activity (BChE; 1 mg/kg p.o. once a day, individual animals, after vs before treatment, 1 mg/kg): 27.0%±4.2% and 15.9%±1.1% and 19.4%±1.8% and 20.1%±2.4%
BChE residual activity, AVERAGE (BChE; 5 mg/kg p.o. once a day for 4 weeks, compared to before treatment, 5 mg/kg): 10%±5%
BChE activity AFTER treatment (BChE; 5 mg/kg p.o. once a day, individual animals, 5 mg/kg): 0.1060±0.0071 U/mL and 0.0989±0.0071 U/mL and 0.0801±0.0268 U/mL and 0.0683±0.0108 U/mL and 0.0919±0.0000 U/mL
BChE residual activity (BChE; 5 mg/kg p.o. once a day, individual animals, after vs before treatment, 5 mg/kg): 10.6%±1.7% and 6.9%±2.9% and 12.1%±2.7% and 10.8%±2.1%
remaining activity at 1 mg/kg (BChE; 1 mg/kg p.o. once a day for 4 weeks, compared to before treatment, read-out: BChE residual activity, AVERAGE): 20.6%
remaining activity at 1 mg/kg (BChE; 1 mg/kg p.o. once a day, individual animals, after vs before treatment, read-out: BChE residual activity): 20.3%
remaining activity at 5 mg/kg (BChE; 5 mg/kg p.o. once a day for 4 weeks, compared to before treatment, read-out: BChE residual activity, AVERAGE): 10.1%
remaining activity at 5 mg/kg (BChE; 5 mg/kg p.o. once a day, individual animals, after vs before treatment, read-out: BChE residual activity): 10.1%
kdecarb, decarbamoylation (hBChE): ∼0.22[53] ×10^–2 h^–1
t1/2, decarbamoylation (hBChE): ∼318[53] h

— paper PMC12491715 (Acta Pharmaceutica Sinica. B, 2025)
